Experimental data taken from the NIST ThermoML archive (doi:10.1016/j.tca.2010.09.010).

Conditions: Crystal, TG

[Cd+2].[I-].[I-] [cadmium iodide (CdI2)]
Conditions | vapor or sublimation pressure [kPa]
740 K | 0.2888
745 K | 0.3252
750 K | 0.3668
755 K | 0.4124
760 K | 0.4631
765 K | 0.5198
770 K | 0.5826
